From US20230167088A1, “1-PYRAZINYLPYRAZOLYL-3-OXYALKYL ACIDS AND THEIR DERIVATIVES, AND THEIR USE FOR CONTROL OF UNDESIRED PLANT GROWTH” (BAYER AKTIENGESELLSCHAFT, priority 2020, published 2023)

Columns and labels:
MATIN [1] = experiment: Herbicidal pre-emergence action 2b (doubly sown, 1280 g/ha); assay type: in vivo, Matricaria inodora; conditions: doubly sown pots, dosage 1280 g/ha, visual scoring after about 3 weeks
Outline: (§1)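 Pre-emergence soil-surface spray (WP/EC formulation, 0.5% additive, 600 L/ha water) onto covered seeds in sandy loam, doubly sown per pot. Greenhouse ~3 wk; % effect scored visually against untreated pots.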

HORMU = experiment: Herbicidal post-emergence action 1a (greenhouse pots, visual rating); assay type: in vivo, Hordeum murinum; conditions: rated visually about 3 weeks after treatment, 100% = plants have died, 0% = like control plants
Experimental: (§2) [table] a) Seeds of monocotyledonous and dicotyledonous weeds and crop plants are placed in sandy loam in plastic or organic plant pots, covered with soil and cultivated in a greenhouse under controlled growth conditions. 2 to 3 weeks after sowing, the test plants are treated at the one-leaf stage. The compounds of the invention, formulated in the form of wettable powders (WP) or as emulsion concentrates (EC), are then sprayed onto the green parts of the plants as aqueous suspension or emulsion with addition of 0.5% additive at a water application rate of 600 1/ha (converted). After the test plants have been kept in the greenhouse under optimum growth conditions for about 3 weeks, the activity of the preparations is rated visually in comparison to untreated controls. For example, 100% activity=the plants have died, 0% activity=like control plants. Tables A1 to A15 below show the effects of selected compounds of the general formula (I) according to Tables 1 and 2 on various harmful plants and an application rate corresponding to 320 g/ha and/or 80 g/ha, which were obtained by the experimental procedure mentioned above.

LOLRI [2] = experiment: as above; assay type: in vivo, Lolium rigidum; conditions: Dosage 320 g/ha; rated visually about 3 weeks after treatment; 100% = plants have died, 0% = like control plants
Outline: (§3)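 Visual scoring versus untreated plants (100% = plants dead, 0% = as control) followed roughly 3 weeks in the greenhouse after treatment. Plants grown in sandy loam pots had been sprayed on green parts at the one-leaf stage, 2–3 weeks post-sowing, with aqueous WP/EC preparations containing 0.5% additive, 600 l/ha, at 320 and/or 80 g/ha.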

VERPE [3] = experiment: as above; assay type: in vivo, Veronica persica; conditions: visual rating about 3 weeks after treatment
Outline: as §3

AMARE [4] = experiment: Herbicidal pre-emergence action 2a (greenhouse pots, visual scoring); assay type: in vivo, Amaranthus retroflexus; conditions: dosage 320 g/ha, visual scoring after about 3 weeks vs untreated controls
Outline: (§4)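 Visual percent rating, ~3 weeks after treatment, untreated pots as reference (0% = control-like, 100% = killed). Application: formulated compound on soil surface over seeds, 320 g/ha and/or 80 g/ha.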

ECHCG [5] = experiment: Herbicidal pre-emergence action 2b (doubly sown, 1280 g/ha); assay type: in vivo, Echinochloa crus-galli; conditions: doubly sown pots, dosage 1280 g/ha, visual scoring after about 3 weeks
Outline: as §1

POLCO [6] = experiment: Herbicidal pre-emergence action 2a (greenhouse pots, visual scoring); assay type: in vivo, Polygonum convolvulus; conditions: dosage 320 g/ha, visual scoring after about 3 weeks vs untreated controls
Outline: as §4

VIOTR [7] = experiment: as above; assay type: in vivo, Viola tricolor; conditions: dosage 320 g/ha, visual scoring after about 3 weeks vs untreated controls
Outline: as §4

POAAN = experiment: Herbicidal pre-emergence action 2b (doubly sown, 1280 g/ha); assay type: in vivo, Poa annua; conditions: doubly sown pots, dosage 1280 g/ha, visual scoring after about 3 weeks
Outline: as §1

ALOMY [8] = experiment: Herbicidal post-emergence action 1a (greenhouse pots, visual rating); assay type: in vivo, Alopecurus myosuroides; conditions: rated visually about 3 weeks after treatment, 100% = plants have died, 0% = like control plants
Outline: as §3

SETVI [9] = experiment: Herbicidal pre-emergence action 2a (greenhouse pots, visual scoring); assay type: in vivo, Setaria viridis; conditions: dosage 320 g/ha, visual scoring after about 3 weeks vs untreated controls
Outline: as §4

AVEFA [10] = experiment: as above; assay type: in vivo, Avena fatua; conditions: dosage 320 g/ha, visual scoring after about 3 weeks
Outline: as §4

ECHCG [11] = experiment: as above; assay type: in vivo, Echinochloa crus-galli; conditions: dosage 320 g/ha, visual scoring after about 3 weeks
Outline: as §4

DIGSA = experiment: as above; assay type: in vivo, Digitaria sanguinalis; conditions: dosage 320 g/ha, visual scoring after about 3 weeks
Outline: as §4

VIOTR [12] = experiment: Herbicidal post-emergence action 1a (greenhouse pots, visual rating); assay type: in vivo, Viola tricolor; conditions: visual rating about 3 weeks after treatment
Outline: as §3

STEME [13] = experiment: Herbicidal pre-emergence action 2b (doubly sown, 1280 g/ha); assay type: in vivo, Stellaria media; conditions: doubly sown pots, dosage 1280 g/ha, visual scoring after about 3 weeks
Outline: as §1

STEME [14] = experiment: Herbicidal post-emergence action 1a (greenhouse pots, visual rating); assay type: in vivo, Stellaria media; conditions: Dosage 320 g/ha; rated visually about 3 weeks after treatment; 100% = plants have died, 0% = like control plants
Experimental: as §2

POLCO [15] = experiment: as above; assay type: in vivo, Polygonum convolvulus; conditions: visual rating about 3 weeks after treatment
Outline: as §3

LOLRI [16] = experiment: Herbicidal pre-emergence action 2a (greenhouse pots, visual scoring); assay type: in vivo, Lolium rigidum; conditions: dosage 320 g/ha, visual scoring after about 3 weeks vs untreated controls
Outline: as §4

AVEFA [17] = experiment: Herbicidal post-emergence action 1a (greenhouse pots, visual rating); assay type: in vivo, Avena fatua; conditions: rated visually about 3 weeks after treatment, 100% = plants have died, 0% = like control plants
Outline: as §3

ECHCG [18] = experiment: as above; assay type: in vivo, Echinochloa crus-galli; conditions: rated visually about 3 weeks after treatment, 100% = plants have died, 0% = like control plants
Outline: as §3

ALOMY [19] = experiment: Herbicidal pre-emergence action 2a (greenhouse pots, visual scoring); assay type: in vivo, Alopecurus myosuroides; conditions: dosage 320 g/ha, visual scoring after about 3 weeks
Outline: as §4

AMARE [20] = experiment: Herbicidal pre-emergence action 2b (doubly sown, 1280 g/ha); assay type: in vivo, Amaranthus retroflexus; conditions: doubly sown pots, dosage 1280 g/ha, visual scoring after about 3 weeks
Outline: as §1

AMARE [21] = experiment: Herbicidal post-emergence action 1a (greenhouse pots, visual rating); assay type: in vivo, Amaranthus retroflexus; conditions: visual rating about 3 weeks after treatment
Outline: as §3

PHBPU [22] = experiment: Herbicidal pre-emergence action 2a (greenhouse pots, visual scoring); assay type: in vivo, Pharbitis purpurea; conditions: dosage 320 g/ha, visual scoring after about 3 weeks vs untreated controls
From the text: (§5) [table] a) Seeds of monocotyledonous and dicotyledonous weed plants and crop plants are placed in plastic or organic plant pots and covered with soil. The compounds of the invention, formulated in the form of wettable powders (WP) or as emulsion concentrates (EC), are then applied onto the surface of the covering soil as aqueous suspension or emulsion with addition of 0.5% additive at a water application rate of 600 1/ha (converted). After the treatment, the pots are placed in a greenhouse and kept under good growth conditions for the trial plants. After about 3 weeks, the effect of the preparations is scored visually in comparison with untreated controls as percentages. For example, 100% activity=the plants have died, 0% activity=like control plants. Tables B1 to B15 below show the effects of selected compounds of the general formula (I) according to Tables 1 and 2 on various harmful plants and an application rate corresponding to 320 g/ha and/or 80 g/ha, which were obtained by the experimental procedure mentioned above.

ABUTH [23] = experiment: Herbicidal post-emergence action 1a (greenhouse pots, visual rating); assay type: in vivo, Abutilon theophrasti; conditions: visual rating about 3 weeks after treatment
Outline: as §3

MATIN [24] = experiment: Herbicidal pre-emergence action 2a (greenhouse pots, visual scoring); assay type: in vivo, Matricaria inodora; conditions: dosage 320 g/ha, visual scoring after about 3 weeks vs untreated controls
Outline: as §4

ABUTH [25] = experiment: as above; assay type: in vivo, Abutilon theophrasti; conditions: dosage 320 g/ha, visual scoring after about 3 weeks vs untreated controls
From the text: as §5

VERPE [26] = experiment: as above; assay type: in vivo, Veronica persica; conditions: dosage 320 g/ha, visual scoring after about 3 weeks vs untreated controls
Outline: as §4

SETVI [27] = experiment: Herbicidal post-emergence action 1a (greenhouse pots, visual rating); assay type: in vivo, Setaria viridis; conditions: rated visually about 3 weeks after treatment, 100% = plants have died, 0% = like control plants
Outline: as §3

PHBPU [28] = experiment: as above; assay type: in vivo, Pharbitis purpurea; conditions: dosage 320 g/ha, visual rating about 3 weeks after treatment
Outline: as §3

COC(=O)COc1nn(-c2cnccn2)c(-c2ccnc(F)c2)c1Br [Example I-09] was tested, and the “Pre-emergence action at 1280 g/ha against MATIN in %” value (MATIN [1]) was 100%, the “Post-emergence action against HORMU in %” value (HORMU; Dosage 80 g/ha) was 80% and the “Post-emergence action against HORMU in %” value (HORMU; Dosage 320 g/ha) was 90%. The “Post-emergence action against LOLRI in %” value (LOLRI [2]) was 90%, the “Post-emergence action against VERPE in %” value (VERPE [3]; dosage 80 g/ha) was 90% and the “Pre-emergence action against AMARE in %” value (AMARE [4]) was 100%. The “Pre-emergence action at 1280 g/ha against ECHCG in %” value (ECHCG [5]) was 100%, the “Pre-emergence action against POLCO in %” value (POLCO [6]) was 100% and the “Pre-emergence action against VIOTR in %” value (VIOTR [7]) was 90%. For the same compound, the “Pre-emergence action at 1280 g/ha against POAAN in %” value (POAAN) was 100%, the “Post-emergence action against ALOMY in %” value (ALOMY [8]; Dosage 80 g/ha) was 80% and the “Post-emergence action against ALOMY in %” value (ALOMY [8]; Dosage 320 g/ha) was 90%. For the same compound, the “Pre-emergence action against SETVI in %” value (SETVI [9]) was 90%, the “Pre-emergence action against AVEFA in %” value (AVEFA [10]) was 90% and the “Pre-emergence action against ECHCG in %” value (ECHCG [11]) was 100%. For the same compound, the “Pre-emergence action against DIGSA in %” value (DIGSA) was 100%, the “Post-emergence action against VIOTR in %” value (VIOTR [12]; dosage 80 g/ha) was 90% and the “Post-emergence action against VIOTR in %” value (VIOTR [12]; dosage 320 g/ha) was 90%. For the same compound, the “Pre-emergence action at 1280 g/ha against STEME in %” value (STEME [13]) was 100%, the “Post-emergence action against STEME in %” value (STEME [14]) was 80% and the “Post-emergence action against POLCO in %” value (POLCO [15]; dosage 320 g/ha) was 100%. The “Pre-emergence action against LOLRI in %” value (LOLRI [16]) was 90%, the “Post-emergence action against AVEFA in %” value (AVEFA [17]; Dosage 80 g/ha) was 90% and the “Post-emergence action against AVEFA in %” value (AVEFA [17]; Dosage 320 g/ha) was 90%. The “Post-emergence action against ECHCG in %” value (ECHCG [18]; Dosage 80 g/ha) was 80%, the “Post-emergence action against ECHCG in %” value (ECHCG [18]; Dosage 320 g/ha) was 80% and the “Pre-emergence action against ALOMY in %” value (ALOMY [19]) was 90%. For the same compound, the “Pre-emergence action at 1280 g/ha against AMARE in %” value (AMARE [20]) was 90%.

For CCOC(=O)COc1nn(-c2cnccn2)c(-c2cncc(F)c2)c1Cl [Example I-91], the “Post-emergence action against LOLRI in %” value (LOLRI [2]) was 90%, the “Post-emergence action against VERPE in %” value (VERPE [3]; dosage 80 g/ha) was 80% and the “Post-emergence action against VERPE in %” value (VERPE [3]; dosage 320 g/ha) was 80%. The “Pre-emergence action against AMARE in %” value (AMARE [4]) was 100%, the “Pre-emergence action against POLCO in %” value (POLCO [6]) was 90% and the “Pre-emergence action against SETVI in %” value (SETVI [9]) was 100%. The “Pre-emergence action against AVEFA in %” value (AVEFA [10]) was 90%, the “Post-emergence action against AMARE in %” value (AMARE [21]; dosage 80 g/ha) was 80% and the “Post-emergence action against AMARE in %” value (AMARE [21]; dosage 320 g/ha) was 90%. For the same compound, the “Pre-emergence action against ECHCG in %” value (ECHCG [11]) was 100%, the “Pre-emergence action against PHBPU in %” value (PHBPU [22]) was 90% and the “Post-emergence action against ABUTH in %” value (ABUTH [23]; dosage 80 g/ha) was 80%. The “Post-emergence action against ABUTH in %” value (ABUTH [23]; dosage 320 g/ha) was 80%, the “Pre-emergence action against MATIN in %” value (MATIN [24]) was 100% and the “Post-emergence action against POLCO in %” value (POLCO [15]; dosage 80 g/ha) was 80%. The “Post-emergence action against POLCO in %” value (POLCO [15]; dosage 320 g/ha) was 80%, the “Pre-emergence action against LOLRI in %” value (LOLRI [16]) was 100% and the “Pre-emergence action against ABUTH in %” value (ABUTH [25]) was 90%. For the same compound, the “Post-emergence action against AVEFA in %” value (AVEFA [17]; Dosage 320 g/ha) was 90%, the “Post-emergence action against ECHCG in %” value (ECHCG [18]; Dosage 320 g/ha) was 90% and the “Pre-emergence action against ALOMY in %” value (ALOMY [19]) was 80%. The “Pre-emergence action against VERPE in %” value (VERPE [26]) was 90%, the “Post-emergence action against SETVI in %” value (SETVI [27]; Dosage 80 g/ha) was 80% and the “Post-emergence action against SETVI in %” value (SETVI [27]; Dosage 320 g/ha) was 90%. For the same compound, the “Post-emergence action against PHBPU in %” value (PHBPU [28]) was 90%.
